Experimental data from patent US11427567B2, “Imidazolyl pyrimidinylamine compounds as CDK2 inhibitors” (Incyte Corporation, priority 2019, dated 2022).

What follows are compounds tested against CDK2/Cyclin E1 (Homo sapiens (Human), UniProt P24941) (assay: CDK2/Cyclin E1 HTRF enzyme activity assay (Example A)). Details: 1 mM ATP.
Assay type: biochemical
Method: Assays were conducted in white 384-well polystyrene plates in a final reaction volume of 8 μL. […] HTRF signals were read after 1 hour at room temperature on a PHERAstar FS plate reader (BMG Labtech). Data was analyzed with IDBS XLFit and GraphPad Prism 5.0 software using a three or four parameter dose response curve to determine IC50 for each compound.

IC50, ≤ 50 nM:
Cc1nc(-c2nc(NC3CCN(S(C)(=O)=O)CC3)ncc2C(F)(F)F)cn1-c1ccccc1F [Example 102, 4-(1-(2-Fluorophenyl)-2-methyl-1H-imidazol-4-yl)-N-(1-(methylsulfonyl)piperidin-4-yl)-5-(trifluoromethyl)pyrimidin-2-amine]
Cc1nc(-c2nc(NC3CCN(S(C)(=O)=O)CC3)ncc2C(F)(F)F)cn1-c1ccc(CNC2CC2)cc1F [Example 356, 4-(1-(4-((Cyclopropylamino)methyl)-2-fluorophenyl)-2-methyl-1H-imidazol-4-yl)-N-(1-(methylsulfonyl)piperidin-4-yl)-5-(trifluoromethyl)pyrimidin-2-amine]
C[C@@H]1CN(S(=O)(=O)c2cn(C)cn2)CC[C@@H]1Nc1ncc(C(F)(F)F)c(-c2cn(CC(F)F)cn2)n1 [Example 337, 4-(1-(2,2-Difluoroethyl)-1H-imidazol-4-yl)-N-((3R,4S)-3-methyl-1-((1-methyl-1H-imidazol-4-yl)sulfonyl)piperidin-4-yl)-5-(trifluoromethyl)pyrimidin-2-amine]
CCS(=O)(=O)N1CCC(Nc2ncc(C(F)(F)F)c(-c3cn(-c4ccc(CN5CCC5)cc4Cl)cn3)n2)CC1 [Example 229, 4-(1-(4-(Azetidin-1-ylmethyl)-2-chlorophenyl)-1H-imidazol-4-yl)-N-(1-(ethylsulfonyl)piperidin-4-yl)-5-(trifluoromethyl)pyrimidin-2-amine]
Cc1nc(-c2nc(NC3CCN(S(C)(=O)=O)CC3)ncc2C(F)(F)F)cn1-c1ccc(N2CC[C@H](N(C)C)C2)cc1F [Example 110, (S)-4-(1-(4-(3-(Dimethylamino)-pyrrolidin-1-yl)-2-fluorophenyl)-2-methyl-1H-imidazol-4-yl)-N-(1-(methyl-sulfonyl)piperidin-4-yl)-5-(trifluoro-methyl)pyrimidin-2-amine]
CN(C)Cc1ccc(-n2cnc(-c3nc(NC4CCN(S(C)(=O)=O)CC4)ncc3C(F)(F)F)c2)c(Cl)c1F [Example 253, 4-(1-(2-Chloro-4-((dimethylamino)methyl)-3-fluorophenyl)-1H-imidazol-4-yl)-N-(1-(methylsulfonyl)piperidin-4-yl)-5-(trifluoromethyl)pyrimidin-2-amine]
CC(C)NCc1cc(F)c(-n2cnc(-c3nc(NC4CCN(S(C)(=O)=O)CC4)ncc3C(F)(F)F)c2)c(F)c1 [Example 348]
Cn1cnc(S(=O)(=O)N2CCC(Nc3ncc(C(F)(F)F)c(-c4cn(-c5cc(N)ncc5F)cn4)n3)CC2)c1 [Example 6, 4-(1-(2-Amino-5-fluoropyridin-4-yl)-1H-imidazol-4-yl)-N-(1-((1-methyl-1H-imidazol-4-yl)sulfonyl)piperidin-4-yl)-5-(trifluoromethyl)pyrimidin-2-amine]
Cc1nc(C#N)ccc1-n1cnc(-c2nc(N[C@H]3CCN(S(C)(=O)=O)C[C@H]3F)ncc2C(F)(F)F)c1 [Example 49, 5-(4-(2-(((3R,4S)-3-Fluoro-1-(methylsulfonyl)piperidin-4-yl)amino)-5-(trifluoromethyl)pyrimidin-4-yl)-1H-imidazol-1-yl)-6-methylpicolinonitrile]
Cn1cnc(-c2nc(NC3CCN(S(=O)(=O)c4cn(C)cn4)CC3)ncc2C(F)(F)F)c1 [Example 10, 4-(1-Methyl-1H-imidazol-4-yl)-N-(1-((1-methyl-1H-imidazol-4-yl)sulfonyl)piperidin-4-yl)-5-(trifluoromethyl)pyrimidin-2-amine]
CS(=O)(=O)N1CCC(Nc2ncc(C(F)(F)F)c(-c3cn(-c4cccc(-c5cccnc5)c4Cl)cn3)n2)CC1 [Example 97, 4-(1-(2-chloro-3-(Pyridin-3-yl)phenyl)-1H-imidazol-4-yl)-N-(1-(methylsulfonyl)piperidin-4-yl)-5-(trifluoromethyl) pyrimidin-2-amine]
CS(=O)(=O)N1CCC(Nc2ncc(C(F)(F)F)c(-c3cn(-c4cccc(CCN5CCC5)c4Cl)cn3)n2)CC1 [Example 373, 4-(1-(3-(2-(Azetidin-1-yl)ethyl)-2-chlorophenyl)-1H-imidazol-4-yl)-N-(1-(methylsulfonyl)piperidin-4-yl)-5-(trifluoromethyl)pyrimi-din-2-amine]
Cc1nc(-c2nc(NC3CCN(S(C)(=O)=O)CC3)ncc2C(F)(F)F)cn1-c1ccc(CN2CC(C)(O)C2)cc1F [Example 354, 1-(3-Fluoro-4-(2-methyl-4-(2-((1-(methylsulfonyl)piperidin-4-yl)amino)-5-(trifluoromethyl)pyrimidin-4-yl)-1H-imidazol-1-yl)benzyl)-3-methylazetidin-3-ol]
Cn1cnc(-c2nc(NC3CCN(S(C)(=O)=O)CC3)ncc2C(F)(F)F)c1C#N [Example 16, 1-Methyl-4-(2-((1-(methylsulfonyl)piperidin-4-yl)amino)-5-(trifluoromethyl)pyrimidin-4-yl)-1H-imidazole-5-carbonitrile]
CC(C)(O)Cn1cnc(-c2nc(NC3CCN(S(=O)(=O)c4ccccn4)CC3)ncc2C(F)(F)F)c1 [Example 338, 2-Methyl-1-(4-(2-((1-(pyridin-2-ylsulfonyl)piperidin-4-yl)amino)-5-(trifluoromethyl)pyrimidin-4-yl)-1H-imidazol-1-yl)propan-2-ol]
Cc1nc(-c2nc(N[C@H]3CCN(S(C)(=O)=O)C[C@H]3F)ncc2C(F)(F)F)cn1-c1ccnc(C#N)c1F [Example 310, 3-Fluoro-4-(4-(2-(((3R,4S)-3-fluoro-1-(methylsulfonyl)piperidin-4-yl)amino)-5-(trifluoromethyl)pyrimidin-4-yl)-2-methyl-1H-imidazol-1-yl)picolinonitrile]
CS(=O)(=O)N1CCC(Nc2ncc(C(F)(F)F)c(-c3cn(-c4ccc(OC(F)F)cc4C#N)cn3)n2)CC1 [Example 126, 5-(Difluoromethoxy)-2-(4-(2-((1-(methylsulfonyl)piperidin-4-yl)amino)-5-(trifluoromethyl)pyrimidin-4-yl)-1H-imidazol-1-yl)benzonitrile]
CS(=O)(=O)N1CCC(Nc2ncc(C(F)(F)F)c(-c3cn(-c4ccc(Cn5cnnc5)cc4Cl)cn3)n2)CC1 [Example 239, 4-(1-(4-((4H-1,2,4-Triazol-4-yl)methyl)-2-chlorophenyl)-1H-imidazol-4-yl)-N-(1-(methylsulfonyl)piperidin-4-yl)-5-(trifluoromethyl)pyrimidin-2-amine]
CS(=O)(=O)N1CCC(Nc2ncc(C(F)(F)F)c(-c3cn(-c4ccc5nccnc5c4Br)cn3)n2)CC1 [Example 162, 4-(1-(5-Bromoquinoxalin-6-yl)-1H-imidazol-4-yl)-N-(1-(methylsulfonyl)piperidin-4-yl)-5-(trifluoromethyl)pyrimidin-2-amine]
CCNCCc1cccc(-n2cnc(-c3nc(NC4CCN(S(C)(=O)=O)CC4)ncc3C(F)(F)F)c2)c1Cl [Example 466, 4-(1-(2-Chloro-3-(2-(ethylamino)ethyl)phenyl)-1H-imidazol-4-yl)-N-(1-(methylsulfonyl)piperidin-4-yl)-5-(trifluoromethyl)pyrimidin-2-amine]
